{"source": "patent EP0641563A1", "about": "“REMEDY FOR CATARACT AND PRODUCTION THEREOF” (TAISHO PHARMACEUTICAL CO. LTD, priority 1992, dated 1993)", "key": {"[1]": {"system": "cultured rat lenses", "details": "selenite cataract models and diabetic cataract models of cultured rat lenses; Atarashii Ganka, vol. 6, 1573-1576 (1989); cited from earlier work"}, "[2]": {"system": "cultured rat lenses", "assay": "Calcium ionophore-induced cataract in cultured rat lenses (opacity by image analyser)", "assay_type": "cell-based, male S.D. rats", "details": "10 µM calcium ionophore (A23187)", "procedure": "Lenses were dissected from 4-week-old male S.D. rats, and cultured for one day in (1) a basic culture medium (MEM), (2) a culture medium of (1) supplemented with 10 µM calcium ionophore (A23187), or (3) a culture medium of (2) supplemented with 4, 20, 100 or 500 µM E-64 or E-64d. Thereafter, the medium was changed as follows: (1) basic medium, (2) basic medium, and (3) basic medium with several concentrations of E-64 or E-64d, and culture was continued for 4 more days, after which opacity of lenses was measured using an image analyser. The ratio of the inhibition of the development of lens opacity by each test drug (E-64, E-64d) to that in the control group is shown in Fig. 2. […] As is evident from the results of Fig. 2, E-64 or E-64d inhibited the opacity of lens caused by calcium ionophore in a concentration-dependent manner. The inhibition effect was stronger in E-64d than in E-64, and the opacity of lens was inhibited by 50% or more at a concentration of 20 µM."}, "[3]": {"assay": "Corneal permeability in vitro (side-by-side permeation cell)", "procedure": "Corneal permeability was tested in vitro using a side-by-side type permeation cell equipped with cornea from albino rabbit. A 1% E-64c solution prepared using a buffer having the following formulation was charged in a donor cell, and the following buffer was charged in a receptor cell, and they were incubated at 34°C. The amount of E-64c permeated into the receptor cell was measured with time. The accumulative amount of the permeated E-64c was measured 1, 2, and 3 hours later.\nIn the same manner as in Experiment Example 4, corneal permeability of a 1% E-64d suspension (pH 7) was examined."}, "[4]": {"system": "galactose cataract in rats", "assay": "Galactose cataract in rats (slit lamp, Sippel grades)", "assay_type": "in vivo, male SD rats", "details": "for progression of cataract (grades of Sippel) compared with control: Wilcoxon method; for progression of cataract compared with control, time series variance analysis: up to day 28", "procedure": "Three-week-old male SD rats (n=30) were bred in a breeding room having a temperature of 24±4°C and humidity of 55±15%, on Labo MR stock (manufactured by Nihon Nosan Kogyo Co., Ltd., Japan) and tap water.\nAs the test drugs, used were (1) 1% solution of E-64c prepared by dissolving E-64c bulk powder in 0.1N sodium hydroxide, adjusting the pH to 5 with 0.1N hydrochloric acid, and adding purified water; and (2) 1% suspension of E-64d prepared by suspending E-64d bulk powder in 0.3% Tween 80, the osmotic pressure of both of which having been adjusted to 290 mOsm/kg H₂O with sodium chloride. As a control, used was (3) physiological saline.\nThe test animals were pre-bred for a week, and then bred on a 25% galactose feed (solidified product of a mixture of galactose and Labo MR stock powder at the ratio of 1:3). The animals were fed for 24 hours daily for the first 7 days, and 9 hours a day from the 8th day. The test drugs were administered from the day when galactose feeding was initiated, and (1) was administered intraperitoneally once a day (100 mg/kg, 1 ml/100g as liquid), and (2) was instilled only in the right eye 4 times a day by 5 µl at a time without treatment to the left eye. The control group was instilled with (3) in the same manner as in the case of (2) without treatment to the left eye.\nLenses were observed under mydriasis using a slit lamp (SL-5D) at 7 day-intervals from the initiation of the test drug and physiological saline (control) administrations until day 28, and the progression of cataract up to the mature cataract was evaluated according to the following 8 stages of cataract grades defined by Sippel [Invest. Ophthalmol., vol. 6, 568-575 (1966)]."}, "[5]": {"assay": "pH stability of 1% E-64d suspensions", "assay_type": "physicochemical", "details": "1% E-64d suspension", "text": "The stability of 1% E-64d suspensions adjusted to various pHs was examined. […]"}, "[6]": {"system": "cataract in Nakano mouse", "assay": "Cataract in Nakano mouse, intraperitoneal administration", "assay_type": "in vivo, Nakano mice", "procedure": "Thirty-five Nakano mice (9 days old) were divided into three groups, and each group was intraperitoneally administered once a day with E-64d at 30 mg/kg or 100 mg/kg, or 5% gum arabic solution as a control. E-64d was suspended in 5% gum arabic solution at a concentration of 0.15% or 0.5%, respectively, and administered to the mice. After the eyes of the mice opened, opacity of the lens was observed using a slip lamp to evaluate progress of cataract."}}, "data": [{"compound": "CC(C)C[C@H](NC(=O)[C@H]1O[C@@H]1C(=O)O)C(=O)NCCCCNC(=N)N", "note": "[E-64, trans-epoxysuccinyl-leucylamide-(4-guanidino)butane, reference compound]", "values": [{"measurement": "effect on opacity of lens", "setting": "[1]", "result": "can prevent opacity of lens"}, {"measurement": "inhibition of the opacity of lens caused by calcium ionophore", "setting": "[2]; 4, 20, 100 or 500 µM", "result": "concentration-dependent"}]}, {"compound": "CC(C)CCNC(=O)[C@H](CC(C)C)NC(=O)[C@H]1O[C@@H]1C(=O)O", "note": "[E-64c, (+)-(2S,3S)-3[(S)-3-methyl-1-(3-methylbutylcarbamoyl)butylcarbamoyl]-2-oxiranecarboxylic acid]", "values": [{"measurement": "corneal permeability, dependence on pH", "setting": "[3]", "result": "pH-dependent"}, {"measurement": "effect on corneal tissue", "setting": "[3]; 1% E-64c solution, pH range of 3 or below", "result": "tissue disorders causing corneal opacity were observed"}, {"measurement": "progression of cataract (grades of Sippel) compared with control", "setting": "[4]; 1% E-64c solution, 100 mg/kg intraperitoneally once a day, 14 days from initiation of administration", "result": "significant delay of cataract"}, {"measurement": "progression of cataract compared with control, time series variance analysis", "setting": "[4]; 1% E-64c solution, 100 mg/kg intraperitoneally once a day", "result": "significant delay of cataract"}]}, {"compound": "CCOC(=O)[C@H]1O[C@@H]1C(=O)N[C@@H](CC(C)C)C(=O)NCCC(C)C", "note": "[E-64d]", "values": [{"measurement": "stability", "setting": "[5]; in the vicinity of pH 4-6", "result": "stable"}, {"measurement": "residual rate", "setting": "[5]; pH 4, 40°C (4 wk), 40320 min", "result": 96.6, "unit": "%"}, {"measurement": "residual rate", "setting": "[5]; pH 4, 60°C (1 wk), 10080 min", "result": 98.7, "unit": "%"}, {"measurement": "residual rate", "setting": "[5]; pH 5, 40°C (4 wk), 40320 min", "result": 99.8, "unit": "%"}, {"measurement": "residual rate", "setting": "[5]; pH 5, 60°C (1 wk), 10080 min", "result": 98.7, "unit": "%"}, {"measurement": "residual rate", "setting": "[5]; pH 6, 40°C (4 wk), 40320 min", "result": 95.2, "unit": "%"}, {"measurement": "residual rate", "setting": "[5]; pH 6, 60°C (1 wk), 10080 min", "result": 97.9, "unit": "%"}, {"measurement": "residual rate", "setting": "[5]; pH 7, 40°C (4 wk), 40320 min", "result": 75.7, "unit": "%"}, {"measurement": "inhibition effect on lens opacity, E-64d compared with E-64", "setting": "[2]; 4, 20, 100 or 500 µM", "result": "stronger"}, {"measurement": "inhibition of the opacity of lens caused by calcium ionophore", "setting": "[2]; 4, 20, 100 or 500 µM", "result": "concentration-dependent"}, {"measurement": "inhibition at 20 µM", "setting": "[2]; Rattus norvegicus, 120 h, 20 µM, 5 days culture, read-out: percent inhibition of lens opacity based on the opacity in the control group", "result": "≥ 50", "unit": "%"}, {"measurement": "E-64d in the receptor solution", "setting": "[3]; pH 7", "result": "not detected"}, {"measurement": "progression of cataract (grades of Sippel) compared with control", "setting": "[4]; 1% E-64d suspension instilled 4 times a day, 5 µl, 7 days from initiation of administration", "result": "significant delay of cataract"}, {"measurement": "progression of cataract (grades of Sippel) compared with control", "setting": "[4]; 1% E-64d suspension instilled 4 times a day, 5 µl, 14 days from initiation of administration", "result": "significant delay of cataract"}, {"measurement": "progression of cataract (grades of Sippel) compared with control", "setting": "[4]; 1% E-64d suspension instilled 4 times a day, 5 µl, 21 days from initiation of administration", "result": "delaying tendency"}, {"measurement": "progression of cataract compared with control, time series variance analysis", "setting": "[4]; 1% E-64d suspension instilled 4 times a day, 5 µl", "result": "significant delay of cataract"}, {"measurement": "proportion of the group showing nuclear opacity", "setting": "[6]; 30 mg/kg intraperitoneally once a day, mice 21 days old (control about 40%)", "result": "about 12%"}, {"measurement": "development of nuclear opacity", "setting": "[6]; 100 mg/kg intraperitoneally once a day, mice 21 days old (control about 40%)", "result": "no development of opacity was observed"}, {"measurement": "degree of nuclear opacity compared with control, time-course observation", "setting": "[6]; E-64d 30 or 100 mg/kg intraperitoneally once a day", "result": "limited to a smaller degree"}]}]}
